Test results from article PMC7891606 (Clinical Pharmacology in Drug Development, 2020).
“Also recorded” adds a separate entry of the source. Where two headings read alike, the source gives them in different places.

How the values were obtained:
[1] = after metabolism by peripheral AADC and COMT; cited from earlier work
[2] = period 1, before opicapone
clinical = conditions: male, human, in vivo, po, 100 mg
[3] = previous pharmacokinetic study; cited from earlier work
Safety and tolerability = type: in vivo, healthy Japanese adult males; conditions: for Tolerability: opicapone tablets 5 to 50 mg once daily for 11 days
[4] = Effect of opicapone on plasma L‐dopa and 3‐OMD exposure; type: in vivo, healthy Japanese adult males
[5] = opicapone 50 mg, period 2, N 20
[6] = opicapone 50 mg, period 3, N 19

N[C@@H](Cc1ccc(O)c(O)c1)C(=O)O [L‐dopa, levodopa]
Bioavailable dose in the brain [1]: approximately 1 % of the ingested dose
tmax in plasma (median (min-max)) ([2]; opicapone 5 mg cohort (A), first dose of L-dopa/carbidopa): 0.50 (0.50‐2.00) h
tmax in plasma (median (min-max)) ([2]; opicapone 10 mg cohort (B), second dose of L-dopa/carbidopa): 0.50 (0.50‐2.00) h
tmax in plasma (median (min-max)) ([2]; opicapone 50 mg cohort (D), first dose of L-dopa/carbidopa): 0.50 (0.50‐2.00) h
Cmax (clinical): 1950 ± 581 ng/mL
Tmax (clinical): 30 min

Cc1c(Cl)c(C)[n+]([O-])c(Cl)c1-c1noc(-c2cc(O)c(O)c([N+](=O)[O-])c2)n1 [Opicapone, opicapone]
Increase of L‐dopa trough levels and extent of exposure compared with entacapone [3]: superior response to entacopone
Number (%) of Subjects Reporting Adverse Event: Diarrhea (Safety and tolerability; opicapone 5 mg, period 3, N 20): 1 (5.0) Number (%) of Subjects
Number (%) of Subjects Reporting Adverse Event: Nausea (Safety and tolerability; opicapone 25 mg, period 3, N 20): 3 (15.0) Number (%) of Subjects
Subjects who stopped treatment due to adverse event (infectious enteritis) (Safety and tolerability; opicapone 50 mg cohort): 1 subject
Number (%) of Subjects Reporting Adverse Event: All (Safety and tolerability; opicapone 50 mg, period 2 (opicapone once daily 11 days), N 20): 2 (10.0) Number (%) of Subjects
Number (%) of Subjects Reporting Adverse Event: Enteritis, infectious (Safety and tolerability; [5]): 1 (5.0) Number (%) of Subjects
Number (%) of Subjects Reporting Adverse Event: Pharyngitis (Safety and tolerability; [5]): 1 (5.0) Number (%) of Subjects
Number (%) of Subjects Reporting Adverse Event: Nausea (Safety and tolerability; [6]): 5 (26.3) Number (%) of Subjects
Number (%) of Subjects Reporting Adverse Event: Vomiting (Safety and tolerability; [6]): 3 (15.8) Number (%) of Subjects
Tolerability (Safety and tolerability): well tolerated; also recorded: well tolerated with no safety issues
Tolerability (Safety and tolerability; listed as opicapone): well tolerated at all doses with no major safety issues
Causal relationship of adverse events to opicapone or L‐dopa/carbidopa (Safety and tolerability; period 2): no adverse events reported in period 2 were thought to be related
Causal relationship of adverse events to opicapone or L‐dopa/carbidopa (Safety and tolerability; period 3): at least possibly related
Change of Cmax and AUC of 3‐OMD following opicapone administration ([4]; especially at the highest opicapone doses): decreased notably
Change of AUC of L‐dopa with increasing opicapone dose ([4]; opicapone 5-50 mg, plateau at 25 mg and higher): increased with increasing opicapone dose; also recorded: tended to increase with increasing opicapone dose; also recorded: plateau in the increase in L‐dopa exposure
